Experimental data taken from ChEMBL document CHEMBL1201862, “PubChem BioAssay data set” (2004).
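Results reflect a 48-hour exposure of cells in 96-well plates to compound at five concentrations. GI50 marks 50% less growth.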 Active and inactive are the calls of the source. Cut-off read from the data, not from the text of the source: active = GI50 up to about 1.1 µM and inactive = higher.

Legend:
Assay in all cases: DTP human tumour cell line panel, 48 h
ACHN = system: ACHN
BT-549 = system: BT-549
DU-145 = system: DU-145
HCT-116 = system: HCT-116
HOP-92 = system: HOP-92
Hs-578T = system: Hs-578T
IGROV-1 = system: IGROV-1
KM12 = system: KM12
Malme-3M = system: Malme-3M
NCI-H522 = system: NCI-H522
RPMI-8226 = system: RPMI-8226
SF-295 = system: SF-295
T47D = system: T47D
UACC-257 = system: UACC-257
UACC-62 = system: UACC-62
UO-31 = system: UO-31
HL-60 = system: HL-60
MOLT-4 = system: MOLT-4
HCC 2998 = system: HCC 2998

Structure (SMILES) | GI50 (ACHN) | GI50 (BT-549) | GI50 (DU-145) | GI50 (HCT-116) | GI50 (HOP-92) | GI50 (Hs-578T) | GI50 (IGROV-1) | GI50 (KM12) | GI50 (Malme-3M) | GI50 (NCI-H522) | GI50 (RPMI-8226) | GI50 (SF-295) | GI50 (T47D) | GI50 (UACC-257) | GI50 (UACC-62) | GI50 (UO-31) | GI50 (HL-60) | GI50 (MOLT-4) | GI50 (HCC 2998)
O=C(CON1C(=O)c2ccccc2C1=O)c1ccccc1 | > 100 µM (inactive) | > 100 µM (inactive) | > 100 µM (inactive) | 36.2 µM (inactive) | 58.6 µM (inactive) | > 100 µM (inactive) | > 100 µM (inactive) | > 100 µM (inactive) | 21.1 µM (inactive) | 17.7 µM (inactive) | 18.6 µM (inactive) | > 100 µM (inactive) | 22.3 µM (inactive) | 34.8 µM (inactive) | > 100 µM (inactive) | 21.3 µM (inactive) | – | – | –
O=C(O)C1CCN(Cc2oc(CO)cc(=O)c2O)C1 (stereo unspecified) | > 100 µM (inactive) | > 100 µM (inactive) | > 100 µM (inactive) | > 100 µM (inactive) | > 100 µM (inactive) | > 100 µM (inactive) | > 100 µM (inactive) | > 100 µM (inactive) | > 100 µM (inactive) | > 100 µM (inactive) | > 100 µM (inactive) | > 100 µM (inactive) | > 100 µM (inactive) | > 100 µM (inactive) | > 100 µM (inactive) | > 100 µM (inactive) | > 100 µM (inactive) | > 100 µM (inactive) | –
CC(C)CC(NC=O)C(=O)NC(Cc1ccccc1)NC(=O)CNC(=O)C(C)NC(=O)C(N)Cc1ccc(O)cc1 (stereo unspecified) | > 100 µM (inactive) | > 100 µM (inactive) | > 100 µM (inactive) | > 100 µM (inactive) | > 100 µM (inactive) | > 100 µM (inactive) | > 100 µM (inactive) | > 100 µM (inactive) | – | > 100 µM (inactive) | > 100 µM (inactive) | > 100 µM (inactive) | > 100 µM (inactive) | – | > 100 µM (inactive) | > 100 µM (inactive) | > 100 µM (inactive) | > 100 µM (inactive) | –
CCOC(=O)c1c2ccccc2n2c(N)c(C(N)=O)nnc12 | 6.07 µM (inactive) | 22.1 µM (inactive) | > 100 µM (inactive) | 31.1 µM (inactive) | – | 4.36 µM (inactive) | 1.33 µM (inactive) | > 100 µM (inactive) | 70.8 µM (inactive) | 28.8 µM (inactive) | > 100 µM (inactive) | 33.1 µM (inactive) | 43.1 µM (inactive) | 99.8 µM (inactive) | 19.9 µM (inactive) | 74.3 µM (inactive) | > 100 µM (inactive) | > 100 µM (inactive) | > 100 µM (inactive)
O=C(CN1c2ccccc2Sc2ccccc21)N1CCNCC1 | > 100 µM (inactive) | > 100 µM (inactive) | > 100 µM (inactive) | > 100 µM (inactive) | 29.5 µM (inactive) | > 100 µM (inactive) | 71.4 µM (inactive) | 64.4 µM (inactive) | > 100 µM (inactive) | – | > 100 µM (inactive) | > 100 µM (inactive) | 71.9 µM (inactive) | > 100 µM (inactive) | > 100 µM (inactive) | 95.5 µM (inactive) | > 100 µM (inactive) | 64.7 µM (inactive) | –
C=CCCC1(CCP(=O)(c2ccccc2)c2ccccc2)OCCO1 | > 100 µM (inactive) | > 100 µM (inactive) | > 100 µM (inactive) | > 100 µM (inactive) | – | > 100 µM (inactive) | > 100 µM (inactive) | > 100 µM (inactive) | > 100 µM (inactive) | 64.3 µM (inactive) | > 100 µM (inactive) | > 100 µM (inactive) | – | > 100 µM (inactive) | > 100 µM (inactive) | > 100 µM (inactive) | > 100 µM (inactive) | > 100 µM (inactive) | > 100 µM (inactive)
CC(=O)N1c2ccccc2[C@H]2CCc3c([nH]c4ccccc34)[C@H]21 | 16 µM (inactive) | 11 µM (inactive) | 20.1 µM (inactive) | 3.07 µM (inactive) | 14.4 µM (inactive) | 21.9 µM (inactive) | 4.33 µM (inactive) | 11.1 µM (inactive) | 14.1 µM (inactive) | 20.4 µM (inactive) | 6.27 µM (inactive) | 13.9 µM (inactive) | 18.7 µM (inactive) | 31.6 µM (inactive) | 12.3 µM (inactive) | 6.31 µM (inactive) | 12.4 µM (inactive) | 11.2 µM (inactive) | –
c1ccc(C2(c3ccccc3)S/C(=C3/SC(c4ccccc4)(c4ccccc4)c4ccccc43)c3ccccc32)cc1 | > 100 µM (inactive) | > 100 µM (inactive) | > 100 µM (inactive) | > 100 µM (inactive) | > 100 µM (inactive) | > 100 µM (inactive) | > 100 µM (inactive) | > 100 µM (inactive) | > 100 µM (inactive) | > 100 µM (inactive) | – | > 100 µM (inactive) | – | > 100 µM (inactive) | > 100 µM (inactive) | > 100 µM (inactive) | > 100 µM (inactive) | > 100 µM (inactive) | > 100 µM (inactive)
CC12CC(c3ccccc3O1)C(C(=O)Nc1ccc(F)cc1)C(=O)N2 (stereo unspecified) | > 100 µM (inactive) | 38.5 µM (inactive) | > 100 µM (inactive) | > 100 µM (inactive) | – | > 100 µM (inactive) | 49.1 µM (inactive) | > 100 µM (inactive) | > 100 µM (inactive) | 63.2 µM (inactive) | 40.3 µM (inactive) | – | 33.5 µM (inactive) | 81.8 µM (inactive) | 71.6 µM (inactive) | 65.9 µM (inactive) | 29.6 µM (inactive) | 21.1 µM (inactive) | > 100 µM (inactive)
COc1c(C)c(C/C=C(\C)CC/C=C(\C)CCC=C(C)C)c(OC)c(OC)c1OC | > 100 µM (inactive) | > 100 µM (inactive) | > 100 µM (inactive) | > 100 µM (inactive) | > 100 µM (inactive) | > 100 µM (inactive) | > 100 µM (inactive) | > 100 µM (inactive) | – | 41.3 µM (inactive) | – | 75 µM (inactive) | – | 64.9 µM (inactive) | > 100 µM (inactive) | > 100 µM (inactive) | – | 91.4 µM (inactive) | 54.6 µM (inactive)
CCOc1cc2c(cc1O)/C(=N/NS(=O)(=O)c1ccc(C)cc1)C[C@@H]1[C@@H]2CC[C@]2(C)[C@@H](O)CC[C@@H]12 | 10.5 µM (inactive) | 3.7 µM (inactive) | – | – | 8.65 µM (inactive) | 7.57 µM (inactive) | 12.1 µM (inactive) | 4.22 µM (inactive) | 7.43 µM (inactive) | 3.31 µM (inactive) | 2.92 µM (inactive) | 3.15 µM (inactive) | 6.87 µM (inactive) | 58.2 µM (inactive) | – | 4.2 µM (inactive) | – | 1.92 µM (inactive) | 3.75 µM (inactive)
COc1cc2c(cc1O)CCN[C@@]21CS[C@H]2c3c(OC(C)=O)c(C)c4c(c3C(COC1=O)N1C2C2NC(Cc3cc(C)c(OC)c(O)c32)[C@@H]1O)OCO4 (stereo partly specified) | < 0.01 µM (active) | < 0.01 µM (active) | < 0.01 µM (active) | < 0.01 µM (active) | < 0.01 µM (active) | < 0.01 µM (active) | < 0.01 µM (active) | < 0.01 µM (active) | – | < 0.01 µM (active) | < 0.01 µM (active) | < 0.01 µM (active) | < 0.01 µM (active) | < 0.01 µM (active) | – | < 0.01 µM (active) | < 0.01 µM (active) | – | –
CCc1n[nH]c(=O)n1N=C(c1ccccc1)c1ccccc1 | > 100 µM (inactive) | > 100 µM (inactive) | > 100 µM (inactive) | > 100 µM (inactive) | > 100 µM (inactive) | > 100 µM (inactive) | > 100 µM (inactive) | > 100 µM (inactive) | > 100 µM (inactive) | > 100 µM (inactive) | > 100 µM (inactive) | > 100 µM (inactive) | > 100 µM (inactive) | > 100 µM (inactive) | > 100 µM (inactive) | > 100 µM (inactive) | > 100 µM (inactive) | > 100 µM (inactive) | –
CC(=O)C(C(C)=O)[C@@H]1OC(C)(C)O[C@@H]1[C@H]1COC(C)(C)O1 | > 100 µM (inactive) | 34.9 µM (inactive) | 51.8 µM (inactive) | 30.9 µM (inactive) | > 100 µM (inactive) | 28.4 µM (inactive) | 35.6 µM (inactive) | 41.4 µM (inactive) | 22.5 µM (inactive) | 26.9 µM (inactive) | 34.7 µM (inactive) | > 100 µM (inactive) | – | 64 µM (inactive) | > 100 µM (inactive) | 55.2 µM (inactive) | 26.6 µM (inactive) | 47.5 µM (inactive) | > 100 µM (inactive)
c1cc(-c2ccc(-c3nc4ccc(C5=NCCN5)cc4s3)s2)ccc1C1=NCCN1 | 0.562 µM (active) | 1.23 µM (inactive) | 0.19 µM (active) | 0.351 µM (active) | 0.299 µM (active) | – | 0.313 µM (active) | 0.565 µM (active) | 1.02 µM (active) | 0.114 µM (active) | 0.295 µM (active) | 0.301 µM (active) | 0.483 µM (active) | 22.5 µM (inactive) | 1.12 µM (inactive) | 1.02 µM (active) | 0.394 µM (active) | 0.0968 µM (active) | 0.0292 µM (active)
COc1cc(/C=C2\CC/C(=C\c3cc(OC)c(O)c(OC)c3)C2=O)cc(OC)c1O | 2.05 µM (inactive) | 2.69 µM (inactive) | 2.21 µM (inactive) | 1.83 µM (inactive) | – | 2.09 µM (inactive) | 0.881 µM (active) | 1.48 µM (inactive) | 0.345 µM (active) | 0.798 µM (active) | 1.04 µM (active) | 3.98 µM (inactive) | 2.32 µM (inactive) | 2.03 µM (inactive) | 1.35 µM (inactive) | 3.43 µM (inactive) | 1.51 µM (inactive) | 1.02 µM (active) | 1.67 µM (inactive)
